Test results from US20070254313A1, “Gnal Splice Variant and Uses Thereof” (AstraZeneca AB, priority 2003, published 2007).

Biological target: T1, human adenosine A2a receptor (Homo sapiens, UniProt P29274)
T1 construct: β1 and γ2 baculoviruses from PerkinElmer Biosignal; host or cells: Sf9 insect cells infected with recombinant baculoviruses; membranes
Experiment: Agonist-induced [35S]-GTPγS binding assay on A2a receptor, Sf9 membranes
Assay type: biochemical
Conditions: Sf9 cells expressing adenosine A2a receptor, XLGolf, and β1γ2 dimer
Description: After infection for 48 hours, cells were harvested for membrane preparation. Cells were harvested by centrifugation at 500×g at 4° C. The cell pellets were washed twice with Dulbecco's phosphate-buffered saline (DPBS) at pH 7.4 and suspended in ice-cold 10 mM Tris-HCl with 5 mM EDTA (TE)(pH 7.4) containing a protease inhibitor cocktail (Roche Applied Science, Indianapolis, Ind.) and sonicated. Following centrifugation at 1000×g, membranes were collected from the supernatant by centrifugation at 20,000×g for 30 min at 4° C. The membrane fraction was stored at −80° C. in TE containing 5% glycerol.
Membranes from Sf9 cells expressing the ADORA2A, XLGolf, β1, and γ2 subunits were resuspended in the reaction buffer (20 mM HEPES, pH 7.4, 100 mM NaCl, 10 mM MgCl2, 1 mM EDTA, 1 mM DTT) including protease inhibitor. Agonist-induced [^35S]-GTPγS binding assay was performed for 90 min at room temperature in 96 well-microplates with a volume of 200 μl per well, and containing 5 μg of membranes, agonist at a concentration range of 10^−12 to 10^−4 M, 10 μM GDP, and 400 pM [^35S]-GTPγS. Non-specific binding was determined in the presence of 10 μM unlabeled GTPαS. Incubations were terminated by rapid filtration of the samples throught glass fiber filters (Whatman GF/C). […] Radioactivity was measured using a Packard Bioscience Top Count NXT Microplate Scintillation microplate reader. […]

T1 sequence (P29274 whole entry): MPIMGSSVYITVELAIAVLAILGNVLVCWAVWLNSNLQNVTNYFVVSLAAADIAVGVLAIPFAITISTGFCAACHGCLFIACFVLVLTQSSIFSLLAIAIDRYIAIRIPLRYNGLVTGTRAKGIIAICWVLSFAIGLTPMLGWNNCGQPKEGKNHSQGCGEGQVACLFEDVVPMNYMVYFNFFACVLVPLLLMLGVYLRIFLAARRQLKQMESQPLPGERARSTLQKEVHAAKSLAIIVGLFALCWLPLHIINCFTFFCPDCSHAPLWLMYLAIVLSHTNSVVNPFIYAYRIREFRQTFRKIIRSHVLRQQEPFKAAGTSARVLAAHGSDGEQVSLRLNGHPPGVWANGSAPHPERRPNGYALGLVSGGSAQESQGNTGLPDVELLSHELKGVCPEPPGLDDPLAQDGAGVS

potencies of ADA-resistant adenosine receptor ligands: comparable
Compound: Nc1nc(Nc2ccccc2)nc2c1ncn2[C@@H]1O[C@H](CO)[C@@H](O)[C@H]1O [CV1808]
